Measurements from PubChem BioAssay (NCI).
“And” between values parts separate entries of the source, which are not always exact repeats. Equal values may be shown once.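 Briefly, cells in 96-well plates were exposed to five compound concentrations for 48 h, and endpoints were estimated by linear interpolation. At the GI50, growth is halved. TGI denotes the concentration required for complete inhibition of growth.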

System: MDA-MB-468 breast
Assay: NCI tumour cell line growth inhibition, 48 h

Q: `O=NN(CCCl)C(=O)NCCCl` was tested. Which TGI did it give?
A: Its TGI is 146 µM and > 500 µM.

Q: How did the GI50 turn out when `O=C(N/N=C\c1ccc(Cl)cc1)c1ccc2nc(-c3ccc(Br)cc3)[nH]c2c1` was run?
A: Its GI50 is 2.02 µM.

Q: And the TGI?
A: The TGI was 3.86 µM.

Q: With `Nc1nc2c(c3ncccc13)C(c1cccc(Br)c1)Cc1ncccc1-2` (stereo unspecified) as the molecule, how does the GI50 read?
A: Its GI50 is 0.349 µM.

Q: And the TGI?
A: Its TGI is 7.66 µM.

Q: For `CCN1CCN(c2cc(C)nc(N(CCNc3ccnc4cc(Cl)ccc34)Cc3ccc4c(c3)OCO4)n2)CC1`, which GI50 is on record?
A: The GI50 was 0.534 µM.

Q: And the TGI?
A: The TGI was 2.14 µM.

Q: What does the source list for `CCOc1nc(-c2ccccc2)cc2c(O)c(C(=O)N/N=C/c3ccc(O)cc3O)[nH]c(=O)c12`?
A: GI50: 2.49 µM; TGI: 56.7 µM

Q: With `COc1ccc2[nH]c(-c3ccccc3)c(/C=C(\C#N)S(=O)(=O)c3ccccc3)c2c1` as the molecule, how does the GI50 read?
A: Its GI50 is 4.17 µM.

Q: What about the TGI of the same molecule?
A: The TGI was greater than 100 µM.

Q: Which GI50 does the source give for `CCOC(=O)N1C/C(=C/c2ccc(F)cc2)C(=O)/C(=C/c2ccc(F)cc2)C1` here?
A: The GI50 was 1.26 µM.

Q: And the TGI?
A: The TGI was 2.9 µM.

Q: With `O=C1C=CC(=O)N1C1CCCCCCCCCCC1` as the molecule, how does the GI50 read?
A: The GI50 was 2.21 µM.

Q: And the TGI?
A: Its TGI is 6.8 µM.

Q: With `O=C(Nc1ccc(CN2CCOCC2)cc1)c1ccc(-c2cc(Cl)ccc2Cl)o1` as the molecule, how does the GI50 read?
A: Its GI50 is 4.52 µM.

Q: What about the TGI of the same molecule?
A: Its TGI is 25.8 µM.

Q: Which GI50 does the source give for `O=C1c2ccccc2-c2nnc(-c3ccc(Br)cc3)cc21` here?
A: Its GI50 is greater than 100 µM.

Q: And the TGI?
A: Its TGI is greater than 100 µM.

Q: Which GI50 does the source give for `O=c1c2cc(F)ccc2sc2c(N3CCNCC3)nc3ccccc3c12` here?
A: The GI50 was 1.58 µM.

Q: And the TGI?
A: The TGI was 3.19 µM.

Q: How did the GI50 turn out when `COc1cc(NCCCCCN=C(N)N)c2ncccc2c1` was run?
A: The GI50 was 0.078 µM.

Q: And the TGI?
A: The TGI was 0.344 µM.

Q: What does the source list for `O=C(N/N=C/c1ccccc1O)c1ccccc1O`?
A: GI50: 0.427 µM; TGI: 5.56 µM

Q: How did the GI50 turn out when `O=C1Nc2cc(Cl)ccc2/C1=C\c1c(-c2ccc(F)cc2)nc2ccccn12` was run?
A: The GI50 was 0.448 µM.

Q: And the TGI?
A: The TGI was 2.25 µM.

Q: Which results are given for `CCCS(=O)(=O)Nc1ccc(F)c(C(=O)c2c[nH]c3ncc(Cl)cc23)c1F`?
A: GI50: 7.64 µM; TGI: 49.5 µM

Q: For `CN1CCc2c(c3ccccc3c3ccccc23)C1`, which GI50 is on record?
A: Its GI50 is 2.22 µM.

Q: And the TGI?
A: The TGI was 9.94 µM.

Q: `CCCCN1CCN(c2ccc3nc(-c4ccc5nc(-c6ccc(OC)c(OC)c6)[nH]c5c4)[nH]c3c2)CC1` was tested. Which GI50 did it give?
A: The GI50 was 0.37 µM.

Q: What about the TGI of the same molecule?
A: The TGI was 1.33 µM.

Q: `CC(=O)Nc1cccc(Nc2nc(N[C@@H](C)c3ccccc3)c3ccccc3n2)c1` was tested. Which GI50 did it give?
A: The GI50 was 0.229 µM.

Q: And the TGI?
A: Its TGI is 0.818 µM.

Q: `CCc1ccc(CNCC(O)c2ccccc2)cc1` (stereo unspecified) was tested. Which GI50 did it give?
A: Its GI50 is 13.2 µM.

Q: What about the TGI of the same molecule?
A: The TGI was 28.2 µM.

Q: How did the GI50 turn out when `CN(C)CCCOc1ccc(OCCCN(C)C)c2c1C(=O)c1ccccc1C2=O` was run?
A: The GI50 was 0.58 µM.

Q: And the TGI?
A: The TGI was 2.95 µM.

Q: What does the source list for `CCn1cc(C(=O)O)c(=O)c2cc(F)c(N3CCN(S(=O)(=O)c4ccc(Cl)cc4)CC3)cc21`?
A: GI50: 2.1 µM; TGI: 6.24 µM
